Key:
Bacillus cereus 4342 = test: microbroth dilution MIC; type: cell-based
[1] = system: Staphylococccus aureus 27734; test: microbroth dilution MIC; type: cell-based, Staphylococcus aureus
E. faecium 49624 = test: microbroth dilution MIC; type: cell-based, Enterococcus faecium
[2] = system: Candida parasilosis ATCC 22019; test: disk diffusion assay; type: cell-based, Candida parapsilosis; settings: 10 micrograms per disk; 35° C. Further: key: R = resistant.
[3] = system: Neisseria gonnorhea ATCC 49226; test: disk diffusion assay; type: cell-based; settings: 10 micrograms per disk; ciprofloxacin 5, vancomycin 30 micrograms per disk; GC agar with 1% growth supplement with 5% CO2
[4] = system: Saccharomyces cerevisiae ATCC 9763; test: disk diffusion assay; type: cell-based; settings: 10 micrograms per disk; 35° C. Further: key: R = resistant.
Cryptococcus neoformans = test: microbroth dilution MIC
S. aureus 29213 = test: microbroth dilution MIC; type: cell-based, Staphylococcus aureus
[5] = system: RNA synthesis in Bacillus subtilis; test: macromolecular synthesis whole cell assay, [3H]uridine incorporation; type: cell-based; settings: for % [3H]uridine (RNA synthesis) incorporation of that of the untreated culture: 1×MIC
[6] = system: S. maltophilia ATCC 13637; test: disk diffusion assay; type: cell-based, Stenotrophomas maltophilia; settings: 10 micrograms per disk; 35° C.
[7] = system: DNA synthesis in Bacillus subtilis; test: macromolecular synthesis whole cell assay, [3H]thymidine incorporation; type: cell-based; settings: for % [3H]thymidine (DNA synthesis) incorporation of that of the untreated culture: 1×MIC
[8] = system: Listeria monocytogenes 19114; test: microbroth dilution MIC; type: cell-based
[9] = system: Streptococcus pneumoniae 700676; test: microbroth dilution MIC
[10] = system: Enterococcus faecalis ATCC 29212; test: disk diffusion assay; type: cell-based; settings: 10 micrograms per disk; ciprofloxacin 5, vancomycin 30 micrograms per disk; 35° C.
GISA 700699 = test: microbroth dilution MIC
[11] = system: Cell wall synthesis in Bacillus subtilis; test: macromolecular synthesis whole cell assay, [3H]N-acetyl glucosamine incorporation; type: cell-based; settings: for % [3H]N-acetyl glucosamine (Cell wall synthesis) incorporation of that of the untreated culture: 1×MIC
[12] = system: Listeria monocytogenes 19115; test: microbroth dilution MIC; type: cell-based
S. epidermis ATCC 12228 = test: disk diffusion assay; type: cell-based, Staphylococcus epidermidis; settings: 10 micrograms per disk; 35° C.
[13] = system: Candida glabrata ATCC 2001; test: disk diffusion assay; type: cell-based; settings: 10 micrograms per disk; 35° C. Further: key: R = resistant.
S. epidermis 12228 = test: microbroth dilution MIC; type: cell-based, Staphylococcus epidermidis
[14] = system: Shigella dysenteriae ATCC 11835; test: disk diffusion assay; type: cell-based; settings: 10 micrograms per disk; 35° C.
Pseudomonas syringae = test: microbroth dilution MIC, plant associated microorganisms; type: cell-based; settings: PD broth
Rhizoctonia solani = test: as above; type: cell-based; settings: PD broth, 48 hours at 23° C.
Sclerotinia sclerotiorum = test: as above; type: cell-based; settings: PD broth, 48 hours at 23° C.
Phytophthora cinnamomi = test: as above; type: cell-based; settings: PD broth, 48 hours at 23° C.
Pythium ultimum = test: as above; type: cell-based; settings: PD broth, 48 hours at 23° C.
brine shrimp = brine shrimp assays; settings: preliminary assays
[15] = system: Cryptococcus neoformans ATCC 32045; test: disk diffusion assay; type: cell-based; settings: 10 micrograms per disk; 35° C.
[16] = system: Staphylococcus aureus ATCC 33591 (MRSA); test: microbroth dilution MIC; type: cell-based; settings: for MIC MRSA 33591: second listing in Table 4
[17] = system: Protein synthesis in Bacillus subtilis; test: macromolecular synthesis whole cell assay, [3H]amino acid mixture incorporation; type: cell-based; settings: for % [3H]amino acid mixture (Protein synthesis) incorporation of that of the untreated culture: 1×MIC
[18] = system: Streptococcus pneumoniae 49619; test: microbroth dilution MIC; type: cell-based
[19] = system: Staphyloccus aureus MH II Eli Lilly Co.; test: microbroth dilution MIC; settings: drug sensitive strain
Candida albicans = test: microbroth dilution MIC

Substance | MIC Bacillus cereus 4342 (Bacillus cereus 4342) | MIC Staphylococccus aureus 27734 [1] | MIC E. faecium 49624 (E. faecium 49624) | diameter of the zone of inhibition, Candida parasilosis ATCC 22019 [2] | diameter of the zone of inhibition, Neisseria gonnorhea ATCC 49226 [3] | diameter of the zone of inhibition, Saccharomyces cerevisiae ATCC 9763 [4] | MIC Cryptococcus neoformans (Cryptococcus neoformans) | MIC S. aureus 29213 (S. aureus 29213) | diameter of the zone of inhibition, S. maltophilia ATCC 13637 [6] | MIC Listeria monocytogenes 19114 [8] | MIC Streptococcus pneumoniae 700676 [9] | diameter of the zone of inhibition, Enterococcus faecalis ATCC 29212 [10] | MIC GISA 700699 (GISA 700699) | MIC Listeria monocytogenes 19115 [12] | diameter of the zone of inhibition, S. epidermis ATCC 12228 (S. epidermis ATCC 12228) | diameter of the zone of inhibition, Candida glabrata ATCC 2001 [13] | MIC S. epidermis 12228 (S. epidermis 12228) | diameter of the zone of inhibition, Shigella dysenteriae ATCC 11835 [14] | MIC Pseudomonas syringae (Pseudomonas syringae) | MIC Rhizoctonia solani (Rhizoctonia solani) | also measured
munumbicin B | 0.5 micrograms/ml | 0.5 micrograms/ml | 0.5 micrograms/ml | R | 14 mm | R | 10 micrograms/ml | 0.5 micrograms/ml | 9 mm | 4 micrograms/ml | 0.5 micrograms/ml | 18 mm | 2 micrograms/ml | 4 micrograms/ml | 21 mm | R | 1 micrograms/ml | R | 2.0 micrograms/ml | 8.0 micrograms/ml | effect on RNA synthesis (in words) [5]: some inhibitory effect; % [3H]uridine (RNA synthesis) incorporation of that of the untreated culture ([5]; 5 min): 64%; % [3H]uridine (RNA synthesis) incorporation of that of the untreated culture ([5]; 10 min): 59%; effect on DNA synthesis (in words) [7]: no effect; % [3H]thymidine (DNA synthesis) incorporation of that of the untreated culture ([7]; 5 min): 93%; % [3H]thymidine (DNA synthesis) incorporation of that of the untreated culture ([7]; 10 min): 102%; effect on cell wall synthesis (in words) [11]: some inhibitory effect; % [3H]N-acetyl glucosamine (Cell wall synthesis) incorporation of that of the untreated culture ([11]; 5 min): 81%; % [3H]N-acetyl glucosamine (Cell wall synthesis) incorporation of that of the untreated culture ([11]; 10 min): 59%; MIC Sclerotinia sclerotiorum (Sclerotinia sclerotiorum): 0.20 micrograms/ml; MIC Phytophthora cinnamomi (Phytophthora cinnamomi): 6.2 micrograms/ml; MIC Pythium ultimum (Pythium ultimum): 0.2 micrograms/ml; LC50 brine shrimp (brine shrimp): 8.2 micrograms/ml; diameter of the zone of inhibition, Cryptococcus neoformans ATCC 32045 [15]: 12 mm; MIC Staphylococcus aureus ATCC 33591 ([16]; methicillin resistant strain, first listing in Table 4): 2.5 micrograms/ml; MIC MRSA 33591 [16]: 0.5 micrograms/ml; effect on protein synthesis (in words) [17]: milder inhibitory effect; % [3H]amino acid mixture (Protein synthesis) incorporation of that of the untreated culture ([17]; 5 min): 85%; % [3H]amino acid mixture (Protein synthesis) incorporation of that of the untreated culture ([17]; 10 min): 74%; MIC Streptococcus pneumoniae 49619 [18]: 0.5 micrograms/ml
munumbicin C | 0.25 micrograms/ml | 0.5 micrograms/ml | 0.5 micrograms/ml | R | 8 mm | R | 10 micrograms/ml | 1 micrograms/ml | R | 4 micrograms/ml | 0.125 micrograms/ml | 20 mm | 2 micrograms/ml | 2 micrograms/ml | R | R | 2 micrograms/ml | R | 15.6 micrograms/ml | 1.5 micrograms/ml | MIC Staphyloccus aureus MH II Eli Lilly Co. [19]: 0.4 micrograms/ml; concentration causing detectable lysis of human red blood cells (human red blood cells): > 80 micrograms/ml; MIC Sclerotinia sclerotiorum (Sclerotinia sclerotiorum): 8.0 micrograms/ml; MIC Phytophthora cinnamomi (Phytophthora cinnamomi): 1.5 micrograms/ml; MIC Pythium ultimum (Pythium ultimum): 4.0 micrograms/ml; MIC Candida albicans (Candida albicans): >10 micrograms/ml; LC50 brine shrimp (brine shrimp): 2.0 micrograms/ml; diameter of the zone of inhibition, Cryptococcus neoformans ATCC 32045 [15]: 12 mm; MIC MRSA 33591 [16]: 0.5 micrograms/ml; MIC Streptococcus pneumoniae 49619 [18]: 0.125 micrograms/ml

From patent US7259004B1, “Endophytic streptomycetes from higher plants with biological activity” (Montana State University, priority 2002, dated 2007)
